Assay results from ChEMBL document CHEMBL4270481, “ALK5 kinase inhibitory activity and synthesis of 2,3,4-substituted 5,5-dimethyl-5,6-dihydro-4H-pyrrolo[1,2-b]pyrazoles” (Eur J Med Chem, 2017).
The source made the active and inactive calls. The calls are words filed in the database; no cut-off is given here.

Assays:
TGF-beta receptor type-1 = target: T1, TGF-beta receptor type-1 (Homo sapiens, UniProt P36897); test: Inhibition of human ALK5 expressed in Sf9 insect cells using casein as substrate in presence of [gamma-33P]ATP; assay type: cell-based
T1 sequence (P36897 whole entry): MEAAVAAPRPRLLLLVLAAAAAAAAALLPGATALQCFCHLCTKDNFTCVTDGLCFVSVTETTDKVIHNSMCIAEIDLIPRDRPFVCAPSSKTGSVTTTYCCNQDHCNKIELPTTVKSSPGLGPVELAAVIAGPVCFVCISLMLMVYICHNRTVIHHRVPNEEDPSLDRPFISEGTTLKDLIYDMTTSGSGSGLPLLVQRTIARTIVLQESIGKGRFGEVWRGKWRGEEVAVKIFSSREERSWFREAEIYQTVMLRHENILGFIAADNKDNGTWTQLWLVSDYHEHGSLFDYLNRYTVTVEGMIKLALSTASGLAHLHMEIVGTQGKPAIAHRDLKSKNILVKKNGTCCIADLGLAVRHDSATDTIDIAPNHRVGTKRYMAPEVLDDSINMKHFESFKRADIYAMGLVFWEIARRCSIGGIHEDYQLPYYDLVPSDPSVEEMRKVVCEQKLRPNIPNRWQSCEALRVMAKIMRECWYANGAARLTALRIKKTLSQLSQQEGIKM

[1] = target: Cyclin-dependent kinase 2/cyclin E1 (Homo sapiens, UniProt P24941); test: Inhibition of human CDK2/cyclin E expressed in Sf9 insect cells using histone H1 as substrate in presence of [gamma-33P]ATP; assay type: cell-based
[2] = target: Tyrosine-protein kinase ABL1 (Mus musculus, UniProt P00520); test: biochemical; assay type: cell-based, Sf9
K562 = test: Cytotoxicity against human K562 cells assessed as decrease in cell proliferation after 72 hrs by calcein AM staining-based assay; assay type: functional; settings: K562, 72 h
MCF7 = test: Cytotoxicity against human MCF7 cells assessed as decrease in cell proliferation after 72 hrs by calcein AM staining-based assay; assay type: functional; settings: MCF7, 72 h
[3] = target: T2, TGF-beta receptor type-1 (Homo sapiens) (UniProt P36897); settings: HeLa, at 1 µM
T2 sequence (whole entry): T1 sequence (P36897 whole entry)
Description: Inhibition of ALK5 in serum starved human HeLa cells assessed as reduction in TGF-beta-induced SMAD2/3 nuclear transaction at 1 uM pre-incubated for 30 mins before TGF-beta stimulation for 30 mins by immunofluorescence analysis

Chain of Tyrosine-protein kinase ABL1 (P00520 whole entry): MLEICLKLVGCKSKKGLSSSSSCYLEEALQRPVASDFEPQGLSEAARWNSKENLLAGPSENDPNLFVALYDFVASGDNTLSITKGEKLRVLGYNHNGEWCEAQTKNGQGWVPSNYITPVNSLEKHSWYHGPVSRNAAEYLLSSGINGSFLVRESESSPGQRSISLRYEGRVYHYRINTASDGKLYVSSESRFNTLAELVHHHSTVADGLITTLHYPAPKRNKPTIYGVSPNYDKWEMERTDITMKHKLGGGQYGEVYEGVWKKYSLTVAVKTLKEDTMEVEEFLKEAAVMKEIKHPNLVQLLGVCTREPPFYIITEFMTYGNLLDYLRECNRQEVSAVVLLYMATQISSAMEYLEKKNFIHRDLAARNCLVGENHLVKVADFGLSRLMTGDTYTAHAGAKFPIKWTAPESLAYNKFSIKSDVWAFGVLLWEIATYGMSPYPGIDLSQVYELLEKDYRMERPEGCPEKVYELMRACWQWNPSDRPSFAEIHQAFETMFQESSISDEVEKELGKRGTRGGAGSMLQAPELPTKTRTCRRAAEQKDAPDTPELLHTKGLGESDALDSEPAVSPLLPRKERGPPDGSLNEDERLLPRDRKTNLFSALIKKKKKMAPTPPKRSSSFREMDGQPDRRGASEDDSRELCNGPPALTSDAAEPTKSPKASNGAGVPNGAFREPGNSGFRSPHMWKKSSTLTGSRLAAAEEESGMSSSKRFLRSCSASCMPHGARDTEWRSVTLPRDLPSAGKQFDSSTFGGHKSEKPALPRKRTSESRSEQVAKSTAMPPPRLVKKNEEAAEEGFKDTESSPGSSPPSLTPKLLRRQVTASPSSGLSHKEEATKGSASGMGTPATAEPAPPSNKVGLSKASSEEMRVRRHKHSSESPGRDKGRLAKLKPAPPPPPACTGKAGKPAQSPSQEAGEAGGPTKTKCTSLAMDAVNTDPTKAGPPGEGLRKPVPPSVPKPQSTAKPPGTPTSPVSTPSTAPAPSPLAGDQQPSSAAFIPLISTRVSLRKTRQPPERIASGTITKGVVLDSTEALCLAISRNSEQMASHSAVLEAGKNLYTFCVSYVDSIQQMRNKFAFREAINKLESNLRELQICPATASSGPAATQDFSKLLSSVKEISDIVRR

CCc1cccc(-c2nn3c(c2-c2ccc(O)cc2)C(C)C(C)(C)C3)n1 (stereo not given)
IC50 (TGF-beta receptor type-1): 0.098 µM
IC50 [1]: > 100 µM
IC50 [2]: > 100 µM
IC50 (K562): > 100 µM
IC50 (MCF7): 46 µM

CCOC(=O)c1ccc(-c2c(-c3cccc(C)n3)nn3c2C(C)C(C)(C)C3)cc1 (stereo not given)
IC50 (TGF-beta receptor type-1): 2.01 µM
IC50 [1]: > 100 µM
IC50 [2]: > 100 µM
IC50 (K562): 45 µM
IC50 (MCF7): 29 µM

Cc1cccc(-c2nn3c(c2-c2ccnc(Nc4ccc(S(N)(=O)=O)cc4)c2)CC(C)(C)C3)n1
IC50 (TGF-beta receptor type-1): 0.147 µM
IC50 [1]: > 100 µM
IC50 [2]: 2.5 µM
IC50 (K562): 52 µM
IC50 (MCF7): 92 µM

Cc1cccc(-c2nn3c(c2-c2ccnc(Cl)c2)CC(C)(C)C3)n1
IC50 (TGF-beta receptor type-1): 1.23 µM
IC50 [1]: > 100 µM
IC50 [2]: > 100 µM
IC50 (K562): > 100 µM
IC50 (MCF7): > 100 µM

Cc1cccc(-c2nn3c(c2-c2ccnc(Cl)c2)C(C)C(C)(C)C3)n1 (stereo not given)
IC50 (TGF-beta receptor type-1): 0.517 µM
IC50 [1]: > 100 µM
IC50 [2]: > 100 µM
IC50 (K562): > 100 µM
IC50 (MCF7): > 100 µM

CC1c2c(-c3ccncc3)c(-c3ccccc3C#N)nn2CC1(C)C (stereo not given)
IC50 (TGF-beta receptor type-1): 1.29 µM
IC50 [1]: > 100 µM
IC50 [2]: 11 µM
IC50 (K562): 77 µM
IC50 (MCF7): > 100 µM

Cc1cccc(-c2nn3c(c2-c2ccc(O)cc2)[C@@H](C)C(C)(C)C3)n1
IC50 (TGF-beta receptor type-1): 0.197 µM
IC50 [1]: > 25 µM
IC50 [2]: > 100 µM
IC50 (K562): > 50 µM
IC50 (MCF7): > 50 µM

CC1c2c(-c3ccc(O)cc3)c(-c3ccccc3C#N)nn2CC1(C)C (stereo not given)
IC50 (TGF-beta receptor type-1): 5.19 µM
IC50 [1]: > 12 µM
IC50 [2]: > 12 µM
IC50 (K562): > 12 µM
IC50 (MCF7): > 12 µM

Cc1cccc(-c2nn3c(c2-c2ccc(O)cc2)[C@H](C)C(C)(C)C3)n1
IC50 (TGF-beta receptor type-1): 0.097 µM
IC50 [1]: > 100 µM
IC50 [2]: > 100 µM
IC50 (K562): > 100 µM
IC50 (MCF7): > 100 µM

Cc1cccc(-c2nn3c(c2-c2ccncc2)C(C)C(C)(C)C3)c1C#N (stereo not given)
IC50 (TGF-beta receptor type-1): 0.162 µM
IC50 [1]: > 100 µM
IC50 [2]: 6.4 µM
IC50 (K562): 92 µM
IC50 (MCF7): 97 µM

Cc1cc(-c2c(-c3cccc(C)n3)nn3c2C(C)C(C)(C)C3)ccn1 (stereo not given)
IC50 (TGF-beta receptor type-1): 0.548 µM
IC50 [1]: > 100 µM
IC50 [2]: 25 µM
IC50 (K562): > 100 µM
IC50 (MCF7): > 100 µM

CC1(C)Cc2c(-c3ccncc3)c(-c3ccccc3C#N)nn2C1
IC50 (TGF-beta receptor type-1): 2.52 µM
IC50 [1]: > 100 µM
IC50 [2]: 20 µM
IC50 (K562): > 100 µM
IC50 (MCF7): > 100 µM

CC1(C)Cc2c(-c3ccncc3)c(-c3ccccn3)nn2C1
IC50 (TGF-beta receptor type-1): 1.94 µM
IC50 [1]: > 50 µM
IC50 [2]: > 50 µM
IC50 (K562): > 100 µM
IC50 (MCF7): > 100 µM

CCc1cccc(-c2nn3c(c2-c2ccc(OC)cc2)C(C)C(C)(C)C3)n1 (stereo not given)
IC50 (TGF-beta receptor type-1): 0.805 µM
IC50 [1]: > 100 µM
IC50 [2]: > 100 µM
IC50 (K562): 64 µM
IC50 (MCF7): 45 µM

Cc1cccc(-c2nn3c(c2-c2ccnc(Nc4ccc(S(N)(=O)=O)cc4)c2)C(C)C(C)(C)C3)n1 (stereo not given)
IC50 (TGF-beta receptor type-1): 0.154 µM
IC50 [1]: 11 µM
IC50 [2]: 0.55 µM
IC50 (K562): 31 µM
IC50 (MCF7): 22 µM

CCc1cccc(-c2nn3c(c2-c2ccc(O)cc2)[C@@H](C)C(C)(C)C3)n1
IC50 (TGF-beta receptor type-1): 0.261 µM
IC50 [1]: 53 µM
IC50 [2]: > 100 µM
IC50 (K562): 77 µM
IC50 (MCF7): 58 µM

Cc1cccc(-c2n[nH]cc2-c2ccc3ncccc3n2)n1 [GW786460X]
IC50 [1]: > 100 µM
IC50 [2]: 21 µM
IC50 (K562): > 100 µM
IC50 (MCF7): > 100 µM
inhibition [3]: Active

CCc1cccc(-c2nn3c(c2-c2ccncc2)C(C)C(C)(C)C3)n1 (stereo not given)
IC50 (TGF-beta receptor type-1): 0.183 µM
IC50 [1]: > 100 µM
IC50 [2]: 43 µM
IC50 (K562): > 100 µM
IC50 (MCF7): > 100 µM

Cc1cccc(-c2nn3c(c2-c2ccncc2)C(C)C(C)(C)C3)n1 (stereo not given)
IC50 (TGF-beta receptor type-1): 0.181 µM
IC50 [1]: > 100 µM
IC50 [2]: 21 µM
IC50 (K562): > 100 µM
IC50 (MCF7): > 100 µM

Cc1cccc(-c2nn3c(c2-c2ccncc2)CC(C)(C)C3)n1
IC50 (TGF-beta receptor type-1): 0.406 µM
IC50 [1]: > 100 µM
IC50 [2]: 26 µM
IC50 (K562): > 100 µM
IC50 (MCF7): > 100 µM

COCC1c2c(-c3ccncc3)c(-c3cccc(C)n3)nn2CC1(C)C (stereo not given)
IC50 (TGF-beta receptor type-1): 0.743 µM
IC50 [1]: > 100 µM
IC50 [2]: 25 µM
IC50 (K562): > 100 µM
IC50 (MCF7): > 100 µM

Cc1cccc(-c2nn3c(c2-c2ccc(O)cc2)C(C)C(C)(C)C3)c1C#N (stereo not given)
IC50 (TGF-beta receptor type-1): 0.341 µM
IC50 [1]: > 12 µM
IC50 [2]: > 12 µM
IC50 (K562): > 12 µM
IC50 (MCF7): > 12 µM

Cc1cccc(-c2nn3c(c2-c2ccncc2)C(CO)C(C)(C)C3)n1 (stereo not given)
IC50 (TGF-beta receptor type-1): 1.41 µM
IC50 [1]: > 100 µM
IC50 [2]: 93 µM
IC50 (K562): > 100 µM
IC50 (MCF7): > 100 µM

CCc1cccc(-c2nn3c(c2-c2ccnc(Cl)c2)C(C)C(C)(C)C3)n1 (stereo not given)
IC50 (TGF-beta receptor type-1): 2.74 µM
IC50 [1]: > 100 µM
IC50 [2]: > 100 µM
IC50 (K562): 82 µM
IC50 (MCF7): > 100 µM

CCc1cccc(-c2nn3c(c2-c2ccc(O)cc2)[C@H](C)C(C)(C)C3)n1
IC50 (TGF-beta receptor type-1): 0.137 µM
IC50 [1]: > 100 µM
IC50 [2]: > 100 µM
IC50 (K562): > 100 µM
IC50 (MCF7): > 100 µM

COc1ccc(-c2c(-c3cccc(C)n3)nn3c2C(C)C(C)(C)C3)cc1 (stereo not given)
IC50 (TGF-beta receptor type-1): 0.612 µM
IC50 [1]: > 100 µM
IC50 [2]: > 100 µM
IC50 (K562): 88 µM
IC50 (MCF7): 66 µM

CCc1cccc(-c2nn3c(c2-c2ccnc(Nc4ccc(S(N)(=O)=O)cc4)c2)C(C)C(C)(C)C3)n1 (stereo not given)
IC50 (TGF-beta receptor type-1): 0.229 µM
IC50 [1]: 37 µM
IC50 [2]: 6.8 µM
IC50 (K562): 24 µM
IC50 (MCF7): 28 µM

CC1(C)Cc2c(-c3ccc(O)cc3)c(-c3ccccn3)nn2C1
IC50 (TGF-beta receptor type-1): 1.99 µM
IC50 [1]: > 100 µM
IC50 [2]: > 100 µM
IC50 (K562): 74 µM
IC50 (MCF7): > 100 µM

Cc1cccc(-c2nn3c(c2-c2ccc(O)cc2)CC(C)(C)C3)n1
IC50 (TGF-beta receptor type-1): 0.229 µM
IC50 [1]: > 100 µM
IC50 [2]: 20 µM
IC50 (K562): > 25 µM
IC50 (MCF7): > 25 µM
